The GI50 is the concentration giving 50% growth inhibition. In general, TGI refers to the concentration giving total growth inhibition. A low value points to greater sensitivity of the cells.

“And” between values parts separate entries of the source, which are not always exact repeats. Identical values can stand only once.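 Test compounds were applied to cells in 96-well plates for 48 hours at 5 doses. The concentration for 50% growth inhibition is given as GI50. TGI marks complete inhibition of growth.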

Assay in all cases: DTP human tumour cell line panel, 48 h
The test system of experiment [1] is UO-31 renal.
Experiment [2] relates to MDA-MB-231 breast.
Experiment [3] has as its system SW-620 colon.
Experiment [4] deals with SK-MEL-28 melanoma.
Experiment [5] has as its system MALME-3M melanoma.
The test system of experiment [6] is RXF 393 renal.
Experiment [7] concerns HT29 colon.
Experiment [8] has as its system HOP-92 NSCLC.
Experiment [9] relates to 786-0 renal.
Experiment [10] concerns UACC-62 melanoma.

For the compound `O=C1C(=O)c2c(nc3ccc(Cl)cn23)-c2ccccc21`, the 50% growth inhibitory concentration (GI50) in experiment [1] is 306 nM; in experiment [2] it was 296 nM; in experiment [3] it was 292 nM; in experiment [4], 253 nM; in experiment [5], 171 nM; in experiment [6], 564 nM. The GI50 in [7] is 3260 nM; in experiment [8] it was 674 nM; in [9] it was 775 nM; in [10], 285 nM. In addition, the TGI in experiment [1] turned out to be 3470 nM; in [2], 3950 nM; in experiment [3] it was 1030 nM; in experiment [4] it was 557 nM; in experiment [5], 368 nM; in experiment [6], 5610 nM. For the same compound, the TGI turned out to be 19800 nM in experiment [7], 1980 nM in [8], 1820 nM in [9] and 904 nM in experiment [10].

Consider `Cc1ccc(C(=O)Nc2cccc(C(F)(F)F)c2)cc1Nc1nc(-c2cccnc2)nc2c1cnn2C`, for which the GI50 is 1080 nM and 477 nM in experiment [1]; 769 nM and 348 nM in experiment [2]; 1740 nM and 1510 nM in [3]; 866 nM and 389 nM in experiment [4]; 482 nM and 262 nM in experiment [5]; 1470 nM and 1450 nM in experiment [6]. Further, the GI50 in [7] is 1480 nM and 488 nM; in experiment [8] it was 1310 nM and 534 nM; in [9] it was 2670 nM and 1640 nM; in [10], 628 nM and 335 nM. The concentration for total growth inhibition (TGI) in experiment [1] is 8990 nM and 5110 nM; in experiment [2] it was 3210 nM and 3950 nM; in experiment [3] it was 13400 nM and > 10000 nM; in [4], 7660 nM and 3400 nM; in experiment [5], 2770 nM and 1500 nM; in experiment [6], 4240 nM and 3660 nM. The concentration for total growth inhibition (TGI) in [7] was 35100 nM and 4490 nM; in [8], 5130 nM and 5010 nM; in experiment [9], 8010 nM and 5120 nM; in experiment [10] it was 5370 nM and 4250 nM.

Consider `COc1cc2c(cc1OCCCCOc1cc3c(cc1OC)C(=O)N1CCC[C@H]1CN3)N=C[C@@H]1CCCN1C2=O`, for which the GI50 is 2890 nM in [1]; 1050 nM in experiment [2]; 931 nM in experiment [3]; 2860 nM in [4]; 1470 nM in experiment [5]; 290 nM in experiment [6]. In addition, the GI50 in experiment [7] was 2370 nM; in experiment [8], 366 nM; in experiment [9], 2940 nM; in [10], 1300 nM. Moreover, the concentration for total growth inhibition (TGI) in [1] is more than 23900 nM; in experiment [2], 5260 nM; in [3] it was more than 22900 nM; in experiment [4], 11800 nM; in [5], 4100 nM; in experiment [6], 1450 nM. Also, the TGI in [7] was more than 23200 nM; in experiment [8], 3300 nM; in [9], more than 100000 nM; in [10], 3030 nM.

Turning to `Cc1cc2c3ccc(C)[n+](C)c3ccc2n1C`, the GI50 in experiment [1] was 3790 nM; in [2], 5140 nM; in experiment [3], 2150 nM; in [4] it was 6050 nM; in experiment [5], 3600 nM; in experiment [6] it was 4010 nM. Moreover, the GI50 in experiment [7] is 3070 nM; in [8], 1970 nM; in experiment [9], 5000 nM; in [10] it was 8970 nM. Further, the TGI in experiment [1] is more than 100000 nM; in [2], 55300 nM; in experiment [3], more than 100000 nM; in [4], 19500 nM; in experiment [5], 12700 nM; in experiment [6], 44200 nM. Besides, the TGI in [7] is 23800 nM; in experiment [8], 19600 nM; in experiment [9], more than 100000 nM; in [10], 22600 nM.

As to `COc1ccc2cc(-c3ccoc(=O)c3-c3cc(OC)c(OC)c(OC)c3)ccc2c1`, the GI50 in [1] was 100 nM; in experiment [2] it was 148 nM; in [3], 45.5 nM; in [4], 683 nM; in [5], more than 100000 nM; in experiment [6], 28 nM. Further, the GI50 in experiment [7] is 38.3 nM; in experiment [8], 2490 nM; in [9], 201 nM; in experiment [10], 53.6 nM. The TGI in experiment [1], in experiment [2], in experiment [3], in experiment [4], in experiment [5] and in [6] was more than 100000 nM in each case. The TGI in [7] is 22500 nM; in experiment [8], more than 100000 nM; in experiment [9], more than 100000 nM; in experiment [10] it was more than 100000 nM.

Consider `O=C1C=C(Br)c2c(-c3ccccc3)oc3cccc1c23`, for which the total growth inhibition concentration (TGI) in experiment [1] was more than 100000 nM; in experiment [2], 78200 nM; in experiment [3], more than 100000 nM; in experiment [4] it was more than 100000 nM; in experiment [5], more than 100000 nM; in [6], more than 83900 nM. In addition, the concentration for total growth inhibition (TGI) in [7], in [8], in [9] and in [10] was more than 100000 nM each time.

Consider `CC(=O)NC1=C(OS(=O)(=O)c2ccc(C)cc2)CN(C)C1=O`, for which the TGI was 14200 nM in experiment [1]; 23100 nM in experiment [2]; more than 37300 nM in experiment [3]; more than 42700 nM in experiment [4]; 6210 nM in experiment [5]; 13300 nM in experiment [6]. Moreover, the TGI in experiment [7] worked out at 20000 nM; in [8], 8490 nM; in experiment [9], 16500 nM; in experiment [10], 21200 nM.

Regarding `O=C(c1ccccc1)C(CN1CCOCC1)c1ccccc1` (stereo not given), the GI50 in [1] is 1410 nM; in experiment [2] it was 1830 nM; in experiment [3] it was 372 nM; in experiment [4] it was 1760 nM; in experiment [5], 1790 nM; in experiment [6], 1800 nM. Moreover, the GI50 is 501 nM in experiment [7], 1330 nM in [8], 2720 nM in experiment [9] and 1710 nM in [10]. The TGI was 3020 nM in experiment [1]; 5050 nM in experiment [2]; 1280 nM in [3]; 3350 nM in experiment [4]; 4030 nM in [5]; 3360 nM in experiment [6]. Further, the TGI in experiment [7] stood at 1890 nM; in [8], 2870 nM; in experiment [9], 6930 nM; in experiment [10], 4210 nM.

For `COc1cc2nc(N3CCCC3)nc(NCC3CCCCC3)c2cc1OC`, the GI50 in [1] is 1100 nM; in [2], 1530 nM; in experiment [3] it was 1390 nM; in experiment [4], 1550 nM; in [5] it was 1240 nM; in [6], 1070 nM. In addition, the GI50 was 435 nM in experiment [7], 1110 nM in experiment [8], 1470 nM in [9] and 1740 nM in experiment [10]. The TGI worked out at 2380 nM in experiment [1]; 3040 nM in experiment [2]; 2890 nM in [3]; 2910 nM in [4]; 2550 nM in [5]; 2490 nM in [6]. Besides, the TGI in experiment [7] turned out to be 1690 nM; in experiment [8] it was 2460 nM; in experiment [9], 3110 nM; in [10], 3210 nM.

On to `N/C(=N\N=C\c1ccc(-c2ccccc2)cc1)N[N+](=O)[O-]`, for which the GI50 in [1] was 6220 nM; in experiment [2], more than 68000 nM; in [3], 796 nM; in experiment [4], 25300 nM; in experiment [5] it was more than 100000 nM; in [6] it was 2780 nM. Besides, the GI50 in [7] was 3590 nM; in experiment [8], 2180 nM; in [9], 10400 nM; in [10], 771 nM. Besides, the TGI in experiment [1] is more than 100000 nM; in experiment [2], more than 100000 nM; in [3], more than 100000 nM; in experiment [4], more than 100000 nM; in experiment [5], more than 100000 nM; in experiment [6] it was 80200 nM. In addition, the total growth inhibition concentration (TGI) in experiment [7], in [8], in experiment [9] and in [10] was more than 100000 nM throughout.

With `C=CC(=O)N(C)[C@H]1C[C@H]2OC(C)(C1OC)n1c3ccccc3c3c4c(c5c6ccccc6n2c5c31)C(=O)NC4` (stereo not given in full), the GI50 in experiment [1] was 18 nM; in experiment [2], 78.3 nM; in experiment [3] it was 51.4 nM; in [4] it was 369 nM; in experiment [5], 70.6 nM; in experiment [6] it was 22.1 nM. The GI50 in experiment [7] is 178 nM; in experiment [8] it was 40.2 nM; in experiment [9], 87.2 nM; in experiment [10] it was 130 nM. For the same compound, the concentration for total growth inhibition (TGI) was determined as 85.4 nM in experiment [1]; 1040 nM in experiment [2]; 792 nM in [3]; 2080 nM in [4]; 449 nM in experiment [5]; 157 nM in [6]. The TGI was 2700 nM in experiment [7], 266 nM in experiment [8], 690 nM in [9] and 835 nM in experiment [10].

On to `O=C(N/N=C/c1ccc2c(c1)CCC2)c1ccccc1O`, for which the TGI in experiment [1] was 94600 nM; in experiment [2] it was 58600 nM; in [3], more than 100000 nM; in [4] it was 68200 nM; in experiment [5], 61500 nM; in experiment [6] it was 62000 nM. In addition, the TGI in [7] is more than 100000 nM; in [8], 65300 nM; in experiment [9], 45000 nM; in experiment [10] it was 70500 nM.

The record behind these values is PubChem BioAssay (NCI).
